Here are results for two molecules from ChEMBL document CHEMBL1123054, “Synthesis and dopamine autoreceptor activity of a 5-(methylmercapto)methyl-substituted derivative of (+/-)-3-PPP (3-(3-hydroxyphenyl)-1-n-propylpiperidine)” (J Med Chem, 1985).

Test [1] relates to Mus musculus. Kind of test: Dopa accumulation induced by GBL was measured in mouse after subcutaneous administration of 32 umol/kg of compound. It is filed as functional.
The species entered for test [2] is Rattus norvegicus. Kind of test: In vitro inhibitory activity was determined against dopamine synthesis in rat striatal synaptosomes. The note with it: Brain.
Test [3] deals with Mus musculus. The test can be described thus: Dose required to produce convulsions in mouse was determined after subcutaneously administration. The format is functional.
The species named for test [4] is Rattus norvegicus. The test can be described thus: In vitro inhibitory activity was determined against dopamine synthesis in rat striatal synaptosomes. The note with it: Brain. This is another data set of the same source.

The term IC50 denotes the midpoint of a concentration-inhibition curve. For the molecule `CCCN1CCCC(c2cccc(O)c2)C1` (stereo not given), in the test with Mus musculus [1], the Accumulation came out at 60%. In the test filed under Rattus norvegicus [2], half-maximal inhibition (IC50) was put at 55 µM.
Molecule `CCCN1C[C@H](CSC)C[C@H](c2cccc(O)c2)C1` came in with an Accumulation with Mus musculus [1] of 89%. For the same molecule, the Dose in the test on Mus musculus [3] came out at 100 µM/kg. In the test filed under Rattus norvegicus [4], this molecule displayed a half-maximal inhibitory concentration (IC50) of 45 µM.
